Laboratory results reported in US20250296953A1, “3,4-THIAZOLO-STEROIDS AND METHODS OF MAKING AND USING THE SAME” (Arkansas State University - Jonesboro, priority 2018, published 2025).
Where two headings read alike, the source gives them in different places.

Legend:
[1] = tested on: 60 different human tumor cell lines; settings: for CC50: read-out: LC50
glioblastoma (SF-295) = experiment: NCI 60 five dose screen
SF-539 = experiment: NCI 60 one dose screen; assay type: cell-based, human; settings: one dose; CNS Cancer; SF-539
SF-295 = experiment: NCI 60 one dose screen; assay type: cell-based, human; settings: one dose; CNS Cancer; SF-295
NCI-H522 (NSCLC) = experiment: NCI 60 one dose screen; assay type: cell-based, human; settings: Non-small Cell Lung Cancer
[2] = SK-MEL-28 (Melanoma), five dose
[3] = SK-OV-3 (Ovarian Cancer), five dose
[4] = SN12C (Renal Cancer), five dose
[5] = SW-620 (Colon Cancer), five dose
[6] = T-47D (Breast Cancer), five dose
[7] = TK-10 (Renal Cancer), five dose
[8] = UO-31 (Renal Cancer), five dose

Substance “(1S,2R,13R,14S,18S)-7-(3-fluoroanilino)-2,18-dimethyl-6-thia-8-azapentacyclo[11.7.0.02,10.05,9.014,18]icosa-5(9),7,10-trien-17-one [IIa.8]” has a GI50 ([1]; SK-MEL-5 (Melanoma), five dose) of 2.02 µM, a TGI ([1]; SK-MEL-5 (Melanoma), five dose) of 4.32E−6 and a GI50 [1, 2] of 1.52 µM. The TGI [1, 2] was 4.27E−6, the GI50 [1, 3] was 2.33 µM and the TGI [1, 3] was 6.10E−6. It also gave a GI50 [1, 4] of 2.36 µM, a TGI [1, 4] of 6.02E−6 and a GI50 ([1]; SNB-19 (CNS Cancer), five dose) of 2.33 µM. For the same substance, the TGI ([1]; SNB-19 (CNS Cancer), five dose) was 5.69E−6, the GI50 ([1]; SNB-75 (CNS Cancer), five dose) was 1.52 µM and the TGI ([1]; SNB-75 (CNS Cancer), five dose) was 4.94E−6. For the same substance, the GI50 [1, 5] was 2.33 µM, the TGI [1, 5] was 4.99E−6 and the GI50 [1, 6] was 2.22 µM. For the same substance, the TGI [1, 6] was 6.95E−6, the GI50 [1, 7] was 1.97 µM and the TGI [1, 7] was 4.15E−6. For the same substance, the GI50 ([1]; U251 (CNS Cancer), five dose) was 1.59 µM, the TGI ([1]; U251 (CNS Cancer), five dose) was 3.68E−6 and the GI50 ([1]; UACC-62 (Melanoma), five dose) was 1.54 µM. The TGI ([1]; UACC-62 (Melanoma), five dose) was 3.12E−6, the GI50 ([1]; UACC-257 (Melanoma), five dose) was 5.47 µM and the TGI ([1]; UACC-257 (Melanoma), five dose) was 6.45E−5. The GI50 [1, 8] was 1.67 µM, the TGI [1, 8] was 3.59E−6 and the GI50 ([1]; four of six central nervous system (CNS) cell lines) was < 2 µM. For the same substance, the CC50 ([1]; 786-0 (Renal Cancer), five dose) was 5.61 µM, the CC50 ([1]; A498 (Renal Cancer), five dose) was > 100 µM and the CC50 ([1]; A549/ATCC (Non-small Cell Lung Cancer), five dose) was > 100 µM. It also gave a CC50 ([1]; ACHN (Renal Cancer), five dose) of 5.92 µM, a CC50 ([1]; BT-549 (Breast Cancer), five dose) of 8.49 µM and a CC50 ([1]; CAKI-1 (Renal Cancer), five dose) of 38.1 µM. The CC50 ([1]; CCRF-CEM (Leukemia), five dose) was > 100 µM, the CC50 ([1]; COLO 205 (Colon Cancer), five dose) was 24.4 µM and the CC50 ([1]; DU-145 (Prostate Cancer), five dose) was 27.4 µM. The CC50 ([1]; EKVX (Non-small Cell Lung Cancer), five dose) was > 100 µM, the CC50 ([1]; HCC-2998 (Colon Cancer), five dose) was 88 µM and the CC50 ([1]; HCT-15 (Colon Cancer), five dose) was 14.7 µM. For the same substance, the CC50 ([1]; HCT-116 (Colon Cancer), five dose) was 6.58 µM, the CC50 ([1]; HL-60(TB) (Leukemia), five dose) was > 100 µM and the CC50 ([1]; HOP-62 (Non-small Cell Lung Cancer), five dose) was 24.5 µM. For the same substance, the CC50 ([1]; HOP-92 (Non-small Cell Lung Cancer), five dose) was 7.73 µM, the CC50 ([1]; HT29 (Colon Cancer), five dose) was 8.28 µM and the CC50 ([1]; IGROV1 (Ovarian Cancer), five dose) was 7.76 µM. For the same substance, the CC50 ([1]; K-562 (Leukemia), five dose) was > 100 µM, the CC50 ([1]; KM12 (Colon Cancer), five dose) was 79.2 µM and the CC50 ([1]; LOX IMVI (Melanoma), five dose) was 6.16 µM. It also gave a CC50 ([1]; M14 (Melanoma), five dose) of 81.4 µM, a CC50 ([1]; MALME-3M (Melanoma), five dose) of 26.7 µM and a CC50 ([1]; MCF7 (Breast Cancer), five dose) of 7.87 µM. The CC50 ([1]; MDA-MB-231/ATCC (Breast Cancer), five dose) was 9.99 µM, the CC50 ([1]; MDA-MB-435 (Melanoma), five dose) was > 100 µM and the CC50 ([1]; MOLT-4 (Leukemia), five dose) was > 100 µM. For the same substance, the CC50 ([1]; NCI-H23 (Non-small Cell Lung Cancer), five dose) was 77.7 µM, the CC50 ([1]; NCI-H226 (Non-small Cell Lung Cancer), five dose) was 81.5 µM and the CC50 ([1]; NCI-H460 (Non-small Cell Lung Cancer), five dose) was > 100 µM. For the same substance, the CC50 ([1]; NCI-H522 (Non-small Cell Lung Cancer), five dose) was 5.75 µM, the CC50 ([1]; NCI/ADR-RES (Ovarian Cancer), five dose) was > 100 µM and the CC50 ([1]; OVCAR-3 (Ovarian Cancer), five dose) was 6.34 µM. The CC50 ([1]; OVCAR-4 (Ovarian Cancer), five dose) was > 100 µM, the CC50 ([1]; OVCAR-5 (Ovarian Cancer), five dose) was > 100 µM and the CC50 ([1]; OVCAR-8 (Ovarian Cancer), five dose) was 68.7 µM. For the same substance, the CC50 ([1]; PC-3 (Prostate Cancer), five dose) was 7.94 µM, the CC50 ([1]; RXF 393 (Renal Cancer), five dose) was 7.31 µM and the CC50 ([1]; SF-268 (CNS Cancer), five dose) was > 100 µM. The CC50 ([1]; SK-MEL-2 (Melanoma), five dose) was 26.7 µM, the CC50 ([1]; SK-MEL-5 (Melanoma), five dose) was 9.24 µM and the CC50 [1, 3] was > 100 µM. For the same substance, the CC50 [1, 4] was 36 µM, the CC50 ([1]; SNB-19 (CNS Cancer), five dose) was 22.7 µM and the CC50 ([1]; SNB-75 (CNS Cancer), five dose) was > 100 µM. The CC50 [1, 5] was > 100 µM, the CC50 [1, 6] was > 100 µM and the CC50 [1, 7] was 8.72 µM. For the same substance, the CC50 ([1]; U251 (CNS Cancer), five dose) was 8.51 µM, the CC50 ([1]; UACC-62 (Melanoma), five dose) was 6.31 µM and the CC50 ([1]; UACC-257 (Melanoma), five dose) was > 100 µM. The CC50 [1, 8] was 7.69 µM, the GI50 (glioblastoma (SF-295); SF-295 (CNS Cancer), five dose) was 1.19 µM and the TGI (glioblastoma (SF-295); SF-295 (CNS Cancer), five dose) was 2.97E−6. For the same substance, the GI50 (glioblastoma (SF-295); glioblastoma SF-295) was 1.19 µM, the CC50 (glioblastoma (SF-295); read-out: LC50, SF-295 (CNS Cancer), five dose) was 7.37 µM and the “Growth Percent” value (SF-539) was −5.93%. For the same substance, the “Growth Percent” value (SF-295) was −18.79% and the “Growth Percent” value (NCI-H522 (NSCLC)) was −43.73%.
